# Measured values published in patent US10406094B2, “Composition for fast dry of hair” (The Procter & Gamble Company, priority 2016, dated 2019).
# Assay: DVS measurement: % reduction in amount of water absorbed by treated hair
# Set-up: % reduction in water absorbed: concentration or dose not given beside the values
# Settings: Molecular Class II
# Method: The leave-on treatment compositions are prepared by adding the Moisture Control Materials and perfume, if needed, into a 50:50 ethanol/water carrier and stirred until complete dissolution. The solution pH is adjusted using sodium hydroxide (50% w/w) to a final pH of 4.0-4.2.
# The hair is allowed to air dry and then analyzed using the DVS method described above. The experiment is repeated for a dosage of 0.50 g of solution per g of hair. The hair in this case is also assessed by expert graders, as described below, in addition to the DVS analysis.
# An amount of 25-30 mg of hair with length of approximately 1 cm is weighed and hold for equilibration at 0% RH for 16 hours. After the 16-hour period, the RH is increased to 10% and maintained at this level for 6 hours. Then, the RH is increased by 10% after every 6 hours interval until it reaches 90% RH. The % reduction in amount of water absorbed is calculated as follows:
# A=Amount of water absorbed by the hair treated with composition containing the Moisture Control Material
# B=Amount of water absorbed by the hair treated with control composition (only carrier) containing no Moisture Control Material % reduction in amount of water absorbed=[(B−A)×100]/B
row,Compound,% reduction in water absorbed [%]
1,CC(C)CCCCCCCCCCCCCCCOC(=O)CCCCCCCCCCCCCCC(C)C [Isostearyl isostearate],11
2,C/C(=C\CO)CCC[C@H](C)CCC[C@H](C)CCCC(C)C [Phytol],14
3,CCCCCCCC/C=C\CCCCCCCC(=O)OCC(O)CO (stereo not drawn) [Glyceryl monooleate],5
4,CCOC(=O)c1cc(O)c(O)c(O)c1 [Ethyl gallate],17
5,CCCCC/C=C\C/C=C\CCCCCCCC(=O)OCC [Ethyl linoleate],8
6,O=C(OCCO)c1ccccc1O [2-Hydroxyethyl salicylate],10
7,CCCCCCCCCCCCCC(=O)OC(C)C [Isopropyl myristate],12
8,Sorbitan caprylate,11
9,CC(C)C(=O)O [Isobutyric acid],5
10,CCCCCCCC/C=C\CCCCCCCC(=O)O [Oleic Acid],14
11,CCCCCCCCC(CO)CCCCCC (stereo not drawn) [2-Hexyl-1-decanol],11
12,CCCCCC[C@@H](O)C/C=C\CCCCCCCC(=O)O [Ricinoleic acid],8.8

# Same assay, conditions: material at 1% wt/vol
row,Compound,% Reduction in amount of water absorbed [%]
1,"O=C(O)c1cc(Cl)c(O)c(Cl)c1 [3,5-Dichloro-4-hydroxybenzoic acid]",15
2,O=S(=O)(O)c1ccc(O)cc1 [4-Hydroxybenzenesulphonic acid],26
3,O=C(O)/C=C/c1ccc(O)cc1 [p-Coumaric acid],8.8
4,Nc1ccc(O)cc1 [4-Aminophenol],10
5,O=C(O)CNc1ccc(O)cc1 [N-4-Hydroxyphenylglycine],15
6,Nc1cccc(O)c1 [3-Aminophenol],14
7,Nc1ccccc1O [2-Aminophenol],14
8,"O=C(O)c1cc(O)ccc1O [2,5-Dihydroxybenzoic acid]",27
9,Cl.Nc1cccc(O)c1 [3-Hydroxyanilinium chloride],16
10,"O=C(O)c1ccc(O)cc1O [2,4-Dihydroxybenzoic acid]",30
11,O=C(O)c1cc(Cl)ccc1O [5-Chlorosalicylic acid],28
12,"O=C(O)c1ccc(O)c(O)c1 [3,4-Dihydroxybenzoic acid]",20
13,O=C(O)c1cc(O)c(O)c(O)c1 [Gallic acid],15
14,"O=C(O)c1cc(O)c(C(=O)O)cc1O [2,5 Dihydroxyterephthalic acid]",18
15,O=C(O)c1cccc(O)c1 [3-Hydroxybenzoic Acid],20
16,COc1cc(/C=C/C(=O)O)ccc1O [Trans-Ferulic Acid],6
17,Nc1ccc(C(=O)O)cc1 [4-Aminobenzoic acid],12
18,Nc1cccc(C(=O)O)c1 [3-Aminobenzoic acid],12
19,"O=C(O)c1cc(O)cc(O)c1 [3,5-Dihydroxybenzoic acid]",15
20,"O=C(O)c1c(O)cccc1O [2,6-Dihydroxybenzoic acid]",35
21,O=C(O)c1ccc(O)c(Cl)c1 [3-Chloro-4-hydroxybenzoic acid],11
